By LD50 is commonly meant the dose expected to kill half of the subjects tested. Low readings indicate greater toxicity, high ones lower toxicity.

Some results are limits rather than exact numbers.

Data on three molecules can be found in patent publication US4923892A, “Tricyclic aromatic compounds” (Burroughs Wellcome Co., priority 1985, dated 1990).

One data set relates to histamine. The experiment in a line: In vivo antihistaminic activity: protection of guinea pigs against histamine aerosol challenge. Also noted: species or system Guinea pigs (Hartley, male).
Data set [1] deals with Compound 48/80 Induced Anaphylactoid Reaction. The experiment in a line: Anaphylactoid activity: inhibition of compound 48/80 induced anaphylactoid reaction in rats. The class given is in vivo, Wister rats. Conditions: Rattus norvegicus, po, dosed 2 hours before compound 48/80 (2 mg/kg i.v.), propranolol 5 mg/kg i.p., at least 50 animals, read-out: ED50, dose providing 50% protection against death induced by compound 48/80. Here is the method: Non-fasted, Wister rats (180-300 g) were dosed with the test compound (i.p. or p.o.) 2 hours before compound 48/80 challenge. One hour prior to challenge, 5 mg/kg i.p. of propranolol was administered. The anaphylactoid inducing agent, compound 48/80 which is well known in the art of pharmacology, was given intravenously at 2 mg/kg and the animals were monitored for symptoms of respiratory distress.
Data were analyzed by Probit determinations. The response was quantitated by determining the dose of test compound which protected 50% of the animals from death at a given time point.
Agents which block the effects of compound 48/80 are commonly classified as inhibitors of anaphylactic mediators or inhibitors of the release of anaphylic mediators.

The next data set can be described thus: LD50 in rats. Conditions: rat, in vivo.

Turning to `CN(C)CC/C=C1/c2ccccc2COc2ccc(C(=O)O)cc21` [Compound 1, (Z)-11-(3-(Dimethylamino)propylidene)-6,11-dihydrodibenz[b,e]oxepin-2-carboxylic acid], the ED50 is 0.15 mg/kg in the data set on histamine (Cavia porcellus, po, 4 hr post dosing, guinea pigs, 0.25% histamine aerosol, at least 40 animals) and 1.1 mg/kg in data set [1]. In addition, the “antihistaminic activity in vivo” value with histamine (in words) is listed as “extremely good antihistaminic activity in vivo”. Besides, the “duration of antihistaminic activity” value with histamine (in words) was “very long durations of antihistamic activity”. Moreover, the LD50 in the data set “LD50 in rats” (ip) is approximately 210 mg/kg; in “LD50 in rats” (po) it was more than 500 mg/kg.

Turning to `CN(C)CCC=C1c2ccccc2COc2ccccc21` [Doxepin, 11-(3-(dimethylamino)propylidene)-6,11-dihydrodibenz[b,e]oxepin], the ED50 in data set [1] turned out to be 0.15 mg/kg.

Regarding `Cc1ccc(/C(=C\CN2CCCC2)c2ccccn2)cc1` [Triprolidine], the ED50 in data set [1] was more than 30 mg/kg.
